Test results taken from US20120065228A1, “COMPOSITIONS AND METHODS FOR TREATING, CONTROLLING, REDUCING, OR AMELIORATING OCULAR INFLAMMATORY WITH LOWER RISK OF INCREASED INTRAOCULAR PRESSURE” (priority 2007, published 2012).

Experiments:
[1] = system: inflammation following cataract surgery; test: Clinical dose ranging study after cataract surgery: resolution of anterior chamber (AC) cells and flare; format: in vivo, human
Description: (§1) There were 8 treatment groups in this study, consisting of three drug doses, vehicle and three dosing frequencies (see also Table 4-1): • Group A: 1% BOL-303242-X ophthalmic suspension, two times per day (BID) • Group B: 2% BOL-303242-X ophthalmic suspension, one time per day (QD) • Group C: 2% BOL-303242-X ophthalmic suspension, BID • Group D: 2% BOL-303242-X ophthalmic suspension, four times per day (QID) • Group E: 3% BOL-303242-X ophthalmic suspension, QD • Group F: 3% BOL-303242-X ophthalmic suspension, BID • Group G: 3% BOL-303242-X ophthalmic suspension, QID • Group H: Vehicle for BOL-303242-X (divided equally into QID, BID, and QD)
At Visit 3 (postoperative Day 1, 18 to 34 hours following surgery), subjects meeting all eligibility criteria were randomized to one of the treatment groups continuing to be studied, including vehicle, in a 1:1 ratio.
(§2) Subjects self-administered study drug, instilling 1 to 2 drops of study drug into the study eye: QID at approximately 4 hour intervals, BID at approximately 12 hour intervals, or QD once in the morning, for 14 days. The initial dose occurred in the clinic at Visit 3 and the final dose was on the day before Visit 6 (postoperative Day 15±1 day). Subjects were examined and evaluated according to the following schedule:
(§3) Visit 1 (screening), Visit 2 (cataract surgery), Visit 3 (postoperative Day 1), Visit 4 (postoperative Day 3±1 day), Visit 5 (postoperative Day 8±1 day), Visit 6 (postoperative Day 15±1 day), Visit 7 (postoperative Day 18±1 day). Subject assessments included adverse events (AEs), concomitant medications, ocular symptoms, pinholed Snellen visual acuity (VA), intraocular pressure (IOP), ocular signs (biomicroscopy), fundoscopy, and study drug drop sensation. In addition, subject diaries were collected and reviewed for accuracy and treatment compliance.
Among other criteria for inclusion in this study, subjects were those who: • were to be at least 18 years of age on the date the informed consent form (“ICF”) was signed and with the capacity to voluntarily provide consent; • were candidates for routine, uncomplicated cataract surgery (phacoemulsification with posterior chamber intraocular lens (“IOL”) implantation, not combined with any other surgery) in the study eye; • in the Investigator's opinion, had potential postoperative pinholed Snellen visual acuity (“VA”) of at least 20/200 or pinholed Decimal VA of 0.1 in the study eye; • had undergone routine, uncomplicated cataract surgery (phacoemulsification with posterior chamber IOL implantation, not combined with any other surgery) in the study eye; and • had ≧Grade 2 anterior chamber (“AC”) cells in the study eye.
Primary Efficacy: The primary efficacy endpoint for this study was the proportion of subjects with complete resolution of AC cells at Visit 5 (postoperative Day 8). Complete resolution of AC cells is defined as Grade 0 cells.
Secondary Efficacy: The secondary efficacy endpoints for this study were the proportions of subjects with Grade 0 pain at Visit 5 (postoperative Day 8) and at each visit, complete resolution of AC cells at each visit, complete resolution of AC cells and flare at each visit, complete resolution of AC flare at each visit, change from baseline to each follow-up visit in AC cells and AC flare combined and separately, ocular symptoms.

[2] = system: IL-1β-induced PGE2 release in human conjunctival fibroblasts (HConF); test: IL-1β-induced PGE2 release in human conjunctival fibroblasts (ELISA); format: cell-based; conditions: 3-1000 nM, 18 hours
Procedure: Human conjunctival fibroblasts (HConF) were seeded in 24-well plates in complete Fibroblast Medium (FM) which contained 2% fetal bovine serum (FBS) and Fibroblast Growth Supplement (FGS). After reaching confluence (about 95%), cells were conditioned in basic FM that had been supplemented with 0.5% charcoal-dextran treated fetal bovine serum (CD-FBS) and without Fibroblast Growth Supplement (FGS) for 24 hours. […] Plates were performed in triplicate. Culture media were evaluated for PGE2 release by ELISA.

[3] = system: intraocular pressure (IOP); test: Clinical dose ranging study after cataract surgery: intraocular pressure (safety); format: in vivo, human
Description: as §1, §2
Visit 1 (screening), Visit 2 (cataract surgery), Visit 3 (postoperative Day 1), Visit 4 (postoperative Day 3±1 day), Visit 5 (postoperative Day 8±1 day), Visit 6 (postoperative Day 15±1 day), Visit 7 (postoperative Day 18±1 day). […]

ocular signs = test: Clinical dose ranging study after cataract surgery: ocular signs (biomicroscopy); format: in vivo, human
Description: as §1, §2, §3
Safety: The safety endpoints in this study were: incidence of AEs, change in IOP, ocular signs (biomicroscopy), Snellen VA, fundoscopy, study drug drop sensation assessment.

[4] = 1% BID, Visit 5 (postoperative Day 8)
[5] = 1% BID, Visit 7 (postoperative Day 18)
[6] = 2% QD, Visit 5 (postoperative Day 8)
[7] = 2% QID, Visit 5 (postoperative Day 8)
[8] = 2% QID, Visit 6 (postoperative Day 15)
[9] = 2% QID, Visit 7 (postoperative Day 18)
[10] = 3% BID, Visit 5 (postoperative Day 8)
[11] = 3% BID, Visit 6 (postoperative Day 15)
[12] = 3% BID, Visit 7 (postoperative Day 18)
[13] = 3% QD, Visit 5 (postoperative Day 8)
[14] = 3% QD, Visit 6 (postoperative Day 15)
[15] = 3% QD, Visit 7 (postoperative Day 18)
[16] = 3% QID, Visit 5 (postoperative Day 8)
[17] = 3% QID, Visit 6 (postoperative Day 15)
[18] = 3% QID, Visit 7 (postoperative Day 18)

Cc1ccc2c(NCC(O)(CC(C)(C)c3cc(F)cc4c3OCC4)C(F)(F)F)cccc2n1 (centres unmarked) [BOL-303242-X]
Proportion of subjects with complete resolution of AC flare ([1]; 1% BID (printed 196 BID), Visit 7 (postoperative Day 18)): 56.7%
Proportion of subjects with complete resolution of AC cells [1, 4]: 21.7%
Proportion of subjects with complete resolution of AC cells and flare combined [1, 4]: 20.0%
Proportion of subjects with complete resolution of AC flare [1, 4]: 41.7%
Proportion of subjects with complete resolution of AC flare ([1]; 1% BID, Visit 6 (postoperative Day 15)): 66.7%
Proportion of subjects with complete resolution of AC cells [1, 5]: 41.7%
Proportion of subjects with complete resolution of AC cells and flare combined [1, 5]: 41.7%
Proportion of subjects with complete resolution of AC flare ([1]; 2% BID, Visit 5 (postoperative Day 8)): 50.0%
Proportion of subjects with complete resolution of AC flare ([1]; 2% BID, Visit 6 (postoperative Day 15)): 60.7%
Proportion of subjects with complete resolution of AC cells [1, 6]: 21.4%
Proportion of subjects with complete resolution of AC cells and flare combined [1, 6]: 21.4%
Proportion of subjects with complete resolution of AC flare [1, 6]: 42.9%
Proportion of subjects with complete resolution of AC cells and flare combined ([1]; 2% QD, Visit 6 (postoperative Day 15)): 35.7%
Proportion of subjects with complete resolution of AC flare ([1]; 2% QID (printed 2% ND), Visit 6 (postoperative Day 15)): 66.7%
Proportion of subjects with complete resolution of AC cells [1, 7]: 28.3%
Proportion of subjects with complete resolution of AC cells and flare combined [1, 7]: 26.7%
Proportion of subjects with complete resolution of AC flare [1, 7]: 51.7%
Proportion of subjects with complete resolution of AC cells [1, 8]: 43.3%
Proportion of subjects with complete resolution of AC cells and flare combined [1, 8]: 41.7%
Proportion of subjects with complete resolution of AC cells [1, 9]: 53.396%
Proportion of subjects with complete resolution of AC cells and flare combined [1, 9]: 53.3%
Proportion of subjects with complete resolution of AC flare [1, 9]: 66.7%
Proportion of subjects with complete resolution of AC flare ([1]; 3% BID, Visit 4 (postoperative Day 3)): 38.3%
Proportion of subjects with complete resolution of AC cells [1, 10]: 25.0%
Proportion of subjects with complete resolution of AC cells and flare combined [1, 10]: 23.3%
Proportion of subjects with complete resolution of AC flare [1, 10]: 51.7%
Proportion of subjects with complete resolution of AC cells [1, 11]: 38.3%
Proportion of subjects with complete resolution of AC cells and flare combined [1, 11]: 38.3%
Proportion of subjects with complete resolution of AC flare [1, 11]: 51.7%
Proportion of subjects with complete resolution of AC cells [1, 12]: 43.3%
Proportion of subjects with complete resolution of AC cells and flare combined [1, 12]: 43.3%
Proportion of subjects with complete resolution of AC flare [1, 12]: 56.7%
Proportion of subjects with complete resolution of AC flare ([1]; 3% QD, Visit 4 (postoperative Day 3)): 35.6%
Proportion of subjects with complete resolution of AC cells [1, 13]: 25.4%
Proportion of subjects with complete resolution of AC cells and flare combined [1, 13]: 23.7%
Proportion of subjects with complete resolution of AC flare [1, 13]: 55.9%
Proportion of subjects with complete resolution of AC cells [1, 14]: 47.5%
Proportion of subjects with complete resolution of AC cells and flare combined [1, 14]: 47.5%
Proportion of subjects with complete resolution of AC flare [1, 14]: 66.1%
Proportion of subjects with complete resolution of AC cells [1, 15]: 47.5%
Proportion of subjects with complete resolution of AC cells and flare combined [1, 15]: 47.5%
Proportion of subjects with complete resolution of AC flare [1, 15]: 57.6%
Proportion of subjects with complete resolution of AC cells [1, 16]: 30.0%
Proportion of subjects with complete resolution of AC cells and flare combined [1, 16]: 30.0%
Proportion of subjects with complete resolution of AC flare [1, 16]: 55.0%
Proportion of subjects with complete resolution of AC cells [1, 17]: 38.3%
Proportion of subjects with complete resolution of AC cells and flare combined [1, 17]: 36.7%
Proportion of subjects with complete resolution of AC flare [1, 17]: 61.7%
Proportion of subjects with complete resolution of AC cells [1, 18]: 46.7%
Proportion of subjects with complete resolution of AC cells and flare combined [1, 18]: 45.0%
Proportion of subjects with complete resolution of AC flare [1, 18]: 58.3%
Anterior chamber cells, change from baseline, compared to vehicle ([1]; Visit 4: 1% BID, 2% QID, 3% QD, 3% QID): Statistically significant mean decreases
Anterior chamber cells, change from baseline, compared to vehicle ([1]; Visit 5: 1% BID, 2% QD, 2% QID, 3% QD, 3% BID, 3% QID): Statistically significant mean decreases
Anterior chamber cells, change from baseline, compared to vehicle ([1]; Visit 6: 1% BID, 2% QID, QD, 3% BID, 3% QID): Statistically significant mean decreases
Anterior chamber cells, change from baseline, compared to vehicle ([1]; Visit 7: 1% BID. 2% QD, 2% QID, QD, 3% BID, 3% QID): Statistically significant mean decreases
Production of PGE2 by IL-1β-induced HConF [2]: successfully inhibits
Mean IOP values among groups ([3]; 2% QID and 3% QD groups, Visit 4 (postoperative Day 3) to Visit 7 (postoperative Day 18)): lowest mean IOP values
Proportion of subjects with mean IOP changes from baseline of ≧5 mmHg or ≧10 mmHg, compared to vehicle ([3]; any dose groups at any study visits): no statistically significant differences
Proportions of subjects with increases in scores for AC cells (ocular signs; Visit 4 (2% QD) and Visit 5 (2% QID, 3% QID)): statistically significantly lower proportions
Proportions of subjects with increases in scores for ciliary flush (ocular signs; Visit 4 (2% QD), Visit 5 (1% BID, 2% QID, 3% BID, 3% QID), and Visit 7 (2% QID and 3% QD)): statistically significantly lower proportions
Proportions of subjects with increases in scores for AC flare (ocular signs; Visit 4 (2% QID) and Visit 5 (3% BID)): statistically significantly lower proportions
Proportions of subjects with increases in scores for chemosis (ocular signs; Visit 4 (3% BID)): statistically significantly lower proportions
Proportions of subjects with increases in scores for palpebral conjunctival injection (ocular signs; Visit 5 (1% BI), 3% BID)): statistically significantly lower proportions
Proportions of subjects with increases in scores for bulbar conjunctival injection (ocular signs; Visit 5 (2% QID, 3% BID, 3% QID)): statistically significantly lower proportions
Proportions of subjects with increases in scores for anterior vitreous haze, corneal edema, corneal staining, eyelid erythema, hyphema, and posterior synechiae (ocular signs; any dose groups at any postoperative visits): No statistically significant differences
